Assay results taken from patent US6291247A, “Methods of screening for factors that disrupt neurotrophin conformation and reduce neurotrophin biological activity” (priority 1996, dated 2001).
“Also recorded” adds a separate entry of the source. Bridges are numbered along the chain shown (N, C = ends).

Columns and labels:
TrkA = system: T1, TrkA; test: Binding of 125I-NGF to TrkA on PC12 cells (p75NTR blocked with BDNF); design: species or system rat; details: 100 μM; in presence of 40 nM BDNF; ± SEM; 120 min
T1 construct: Receptor cross-linking studies were performed on PC12 rat pheochromocytoma cells; endogenous in cells; host or cells: PC12 rat pheochromocytoma cells (ATCC CRL 1721)
T1 sequence (P01139 122-239): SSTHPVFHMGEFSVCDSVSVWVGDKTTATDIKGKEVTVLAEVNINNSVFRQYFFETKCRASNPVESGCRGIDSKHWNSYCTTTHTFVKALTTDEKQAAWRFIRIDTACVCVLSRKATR
Description: PC12 cells were grown in RPMI with 10% heat inactivated donor horse serum and 5% fetal calf serum. […] The tubes were incubated for 2 hr at 4° C. and 100 μl aliquots (providing triplicate data points for each sample) were transferred to 400 μl microcentrifuges containing 200 μl of 10% glycerol in HKR. Tubes were centrifuged for 2 minutes at 5,000 rpm, the tip containing the cell pellet cut off and radioactivity bound to the cells was determined.

NGF dimer = NGF dimer stability by non-reducing gel electrophoresis; design: species or system mouse
Description: For conformation and dimer integrity studies, 0.1 nM ^125 I-NGF was incubated in the presence or absence of Zn^2+ in HKR buffer for 2 hours at 4° C. in a total volume of 0.1 ml. For crosslinking NGF […], 0.4 mM BS^3 was added to the mixture and incubated for 30 minutes at 25° C. The reaction was quenched with reducing SDS PAGE sample buffer, electrophoresed using a linear 15% acrylamide gel and autoradiographed. To assess the dimeric nature of NGF in the presence of Zn^2+, ^125 I-NGF was electrophoresed in a non-reducing SDS PAGE system as described, autoradiographed, and the labelled proteins excised from the gels and counted. For CD studies, NGF (50 μg/ml) was dissolved in 50 mM Tris-HCl buffer and spectra recorded using a computer controlled Jasco J-600 spectropolarimeter. Samples were acquired in the absence or presence of Zn^2+ (100 μM) at 22° C. in a 2 mm quartz cell averaged over eight scans. Modification of His residues by DEPC was carried out as previously described, where the molar excess of DEPC added and the extent of reaction was determined by evaluating the loss of binding activity of the modified product.

PC12 cells [1] = test: NGF-dependent survival of PC12 cells; assay type: cell-based, rat
Description: Effects of divalent ions on NGF mediated survival and toxicity was evaluated using a colorimetric assay for the lysosomal enzyme acid phosphatase to determine cell number (Connolly, D. T., Knight, M. B., Harakas, N. K, Wittwer, A. J. & Feder, J. Determination of the number of endothelial cells in culture using an acid phosphatase assay. Anal. Biochem. 152, 136-140 (1986); Ueda, Y., Walsh, E., Nakanishi H. & Yoshida, K. A. colorometric assay method for the evaluation of neurotrophic activity in vitro. Neurosci. Lett. 165, 203-207 (1994)). […] To evaluate toxicity, the cells were seeded and maintained without NGF in RPMI with 10% heat inactivated donor horse serum and 5% fetal calf serum in the presence of additives. Loss in viable cell number was determined and expressed as a percent of control. NGF rescues PC12 cells from cell death in serum-free medium(Greene, L. A. Nerve growth factor prevents the death and stimulates neuronal differentiation of clonal PC12 pheochromocytoma cells in serum-free medium. J. Cell Biol. 78, 747-755 (1978)). NGF-dependent survival was assessed by harvesting PC12 cells in balanced salt solution followed with washing by 4 cycles of suspension and centrifugation in serum-free RPMI prior to seeding in 96 well plates. After incubation with additives, medium was removed from the wells and cells washed once with 200 μl PBS. Buffer containing 0.1M sodium acetate pH 5.5, 0.1% Triton X-100 and 10 mM p-nitrophenyl phosphate (Sigma 104 phosphatase substrate) was added to each well (100 μl). Plates were incubated at 37° C. for 3 hours. The reaction was stopped by the addition of 10 μl/well of 1N sodium hydroxide and the color development measured at 405 nm using a microplate reader. The relationship between cell number and enzyme activity was linear over the range 1000 to 15,000 cells.
To explore the ability of other transition metals to influence the biological activities of NGF, a series of cations known to mimic in certain respects the binding of zinc to proteins were tested. […] For this reason these ions were not tested in NGF- dependant growth phenomena. […] As these studies appeared to indicate potentially complex results upon metal ions binding to NGF, a receptor crosslinking system where specific receptor types could be identified was utilized.

PC12 cells [2] = test: Toxicity to PC12 cells; assay type: cell-based, rat
DRG neurons = test: NT-3-dependent neurite outgrowth of DRG neurons; assay type: cell-based, chick; details: n = 8
Description: Dissosiated cells enriched for sensory neurons were prepared from ED8 chick DRG as described (Dostaler, S. M. et al. Characterization of a distinctive motif of the low molecular weight neurotrophin receptor that modulates NGF-mediated neurite growth. Eur. J. Neurosci. 8, 870-879 (1996)). Neurons were seeded at a density of 800-1000 cells/well in Ham's F-12 containing 5% FCS and NGF at 10 pM into wells of Terasaki plates treated with polyysine. The cells were incubated with the indicated additives at 37° C. in a 5% CO2 atmosphere. The cells on the entire lower horizontal surface of the well were scored for neurite growth at 18-20 hours using an inverted microscope fitted with phase contrast optics. A neurite was scored if its caliber from the origin to terminal was constant and its length was equal to or greater than 1.5 cell body diameters. Neurite growth was corrected for background (no NGF).
Human recombinant BDNF and human recombinant NT-3 were obtained from Alomone Laboratories (Israel). The iodination, crosslinking, and binding experiments using BDNF and NT-3 were performed using the methods described above for NGF. Neurite outgrowth assays were performed as described in the presence of 4.0 nM NT-3 or 8.0 nM BDNF.

TrkA receptor = test: Inhibition of TrkA phosphorylation by R11 in PC12 cells (Example 3); assay type: cell-based, rat
Description: Referring to FIG. 7C, the ability of R11 to influence TrkA phosphorylation was determined by incubating 10^7 PC12 cells (prepared as described above) in one mL HKR buffer with 50 ng NGF and the indicated concentrations of peptides for 15 min at 37° C. The cells were isolated by centrifugation, solubilized in lysis buffer and the TrkA receptor isolated as described above. The TrkA immunoprecipitated was dissociated in SDS reducing sample buffer and electrophoresed using a 6% polyacrylamide gel. The gel was then transferred to PVDF membrane (BioRad), probed with horseradish peroxidase-conjugated anti phosphotyrosine (RC20; Transduction) and developed using ECL (Amersham). All procedures were carried out according to the manufacturers' instructions.

[3] = system: kindling-induced seizures; test: Kindling (seizure development) in rats; assay type: in vivo, Male Long-Evans hooded rats; details: intraventricular infusion; peptide 45 μM, anti-NGF 100 μg/day
Description: The effect of the present neurotrophin-derived peptides on kindling was determined as follows.
Male Long-Evans hooded rats (300-400 g) were used. The animals were housed individually, maintained on an ad lib feeding schedule and kept on a 12 h on/12 h off light cycle. The rats were anaestetised with 0.1 mL per 100 g body weight of 100 mg/mL ketamine hydrochloride (Roger/STB Inc., London, Canada) and 0.05 mL per 100 g body weight of 20 mg/mL xylocaine 2% hydrochloride (Astra, Mississauga, Canada), and then placed in a stereotaxic holder. […] Following implantation of the electrode, a cannula (Alzet brain infusion kit, Alza Corp.) was implanted in the lateral ventricle, 5 mm below the skull surface, at 0.6 mm caudal to bregma and 1.3 mm lateral to the midline. It was firmly attached to the skull with dental cement and anchored with tee stainless steel screws. […] Histological examination of lateral ventricle sections was done to confirm that the cannula was correctly placed. […] There were five groups of test animals, 5 animals per peptide test group, 10 animals in the negative control group and 12 animals in the positive control group. […]
Following a three-day recovery, the kindling stimulations were started. […] Progression of kindling was monitored behaviorally and electrophysiologically by recording the behavioral seizure stages and the duration and magnitude of afterdischarges.

Molecule	steady-state specific binding of 125I-NGF (0.5 nM) to TrkA (TrkA) [% Control]	Percentage of NGF migrating as a dimer in non-reducing gel electrophoresis (NGF dimer)	NGF-mediated survival of PC12 cells (PC12 cells [1]; 100 μM, serum-free, CaEDTA together with Zn2+)	Antagonism of NGF-dependent survival (PC12 cells [1]; high (1 nM) or low (50 pM) NGF)	Survival @ 50 pM NGF (PC12 cells [1]; rat, pc12 cells, 100 µM) [% control]	Survival @ 1 nM NGF (PC12 cells [1]; rat, pc12 cells, 100 µM) [% control]	Toxicity (PC12 cell viability) (PC12 cells [2]; 100 μM) [% control]	Toxicity to PC12 cells (PC12 cells [2]; in presence of serum, up to 100 μM)	Neurite Outgrowth, NT-3 (4.0 nM) (DRG neurons; 30 μM Zn2+)	Neurite Outgrowth, NT-3 (4.0 nM) (DRG neurons; 50 μM Zn2+)	NGF-induced TrkA phosphorylation (TrkA receptor; 200 μM, 50 ng NGF, 15 min at 37° C., PC12)	Basal TrkA phosphorylation (TrkA receptor; no NGF)	Delay of the onset of kindling (number of stimulations to stage-5 seizures) [3]
[Zn+2] [Zn^2+]	19 ± 15	No change	reduced signifcantly	ability to antagonize the NGF-dependant survival	67 ± 19	84 ± 39	97 ± 11	no loss in cell viability; also recorded: not toxic	79.9 ± 13.8 % Maximum process bearing neur	18.4 ± 9.6 % Maximum process bearing neur			
NH2 -Cys-Gly-Ser-Glu-Val-Pro-Asn-Ser-Ala-Arg-Cys-Cys-Val-Cys-OH (H-CGSEVPNSARCCVC-OH; disulfide 1-14, 11-12) [R11, bicyclic peptide of NGF residues 68-58/108-110, two disulfide bonds]											abolished; also recorded: blocked	no influence	approximately equal to that of the anti-NGF IgG
